The structures appear in SMILES notation.

This assay concerns the target T1, human FXR (Homo sapiens, UniProt Q96RI1).
T1 construct: expressed in transfected cells; host or cells: HEK293 cells stably carrying a 5xGal4 response element-luciferase reporter, transiently transfected with pcDNA3.1-Gal4-FXR
T1 sequence (Q96RI1 262-486 limits assumed): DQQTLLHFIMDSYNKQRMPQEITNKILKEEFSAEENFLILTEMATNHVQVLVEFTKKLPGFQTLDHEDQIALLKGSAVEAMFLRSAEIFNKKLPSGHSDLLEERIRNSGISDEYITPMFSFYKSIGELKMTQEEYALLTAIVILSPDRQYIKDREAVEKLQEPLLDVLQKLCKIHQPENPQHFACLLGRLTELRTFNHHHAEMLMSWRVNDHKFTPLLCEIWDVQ
As to the kind of experiment: transient human FXR/Gal4-luciferase reporter assay. The format is cell-based. The following applies: Gal4-hFXR fusion construct, luciferase reporter in HEK293 cells; overnight incubation; response as percentage of 8 μM GW-4064 control. The gist of the method: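 HEK293 cells stably carrying a 5×Gal4-response-element firefly luciferase reporter were transiently transfected with a Gal4 DBD-human FXR LBD fusion, then treated overnight with compounds at 37 °C. Steady-Glo luminescence, minus DMSO background, was expressed as percent of the response to 8 μM GW-4064.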
Background: Reporter assays use an easily measured gene product as a stand-in for the process of interest.

Take `CC(C)Oc1cccc(N(CC23CCC(c4noc(C(C)(F)F)n4)(CC2)CC3)C(=O)[C@H]2C[C@@](C)(O)C2)c1` [Example 125, (1S,3S)—N-((4-(5-(1,1-difluoroethyl)-1,2,4-oxadiazol-3-yl)bicyclo[2.2.2]octan-1-yl)methyl)-3-hydroxy-N-(3-isopropoxyphenyl)-3-methylcyclobutane-1-carboxamide]: the EC50 (commonly the concentration needed to bring the measured effect to its halfway point) worked out at 1520 nM. For `CC(C)Oc1cccc(N(CC23CCC(c4noc(C(C)(F)F)n4)(CC2)CC3)C(=O)[C@H]2C[C@](O)(C(F)(F)F)C2)c1` [Example 126, (1S,3S)-N-((4-(5-(1,1-difluoroethyl)-1,2,4-oxadiazol-3-yl)bicyclo[2..2.2]octan-1-yl)methyl)-3-hydroxy-N-(3-isopropoxyphenyl)-3-(trifluoromethyl)cyclobutane-1-carboxamide] the value was 610 nM. For `CC(C)Oc1cccc(N(CC23CCC(c4noc(C(C)(F)F)n4)(CC2)CC3)C(=O)C23CC(F)(C2)C3)c1` [Example 127, N-((4-(5-(1,1-difluoroethyl)-1,2,4-oxadiazol-3-yl)bicyclo[2.2.2]octan-1-yl)methyl)-3-fluoro-N-(3-isopropoxyphenyl)bicyclo[1.1.1]pentane-1-carboxamide] the value was 156 nM. With `CC(C)(C)c1noc(C23CCC(CN(C(=O)C45CC(F)(C4)C5)c4ccc(F)c(C(C)(C)O)c4)(CC2)CC3)n1` [Example 128, N-((4-(3-(tert-butyl)-1,2,4-oxadiazol-5-yl)bicyclo[2.2.2]octan-1-yl)methyl)-3-fluoro-N-(4-fluoro-3-(2-hydroxypropan-2-yl)phenyl)bicyclo[1.1.1]pentane-1-carboxamide], it took 4000 nM to reach a half-maximal effect (EC50). For `COc1cccc(N(CC23CCC(c4noc(C(C)(F)F)n4)(CC2)CC3)C(=O)C23CC(F)(C2)C3)c1` [Example 129, N-((4-(5-(1,1-difluoroethyl)-1,2,4-oxadiazol-3-yl)bicyclo[2.2.2]octan-1-yl)methyl)-3-fluoro-N-(3-methoxyphenyl)bicyclo[1.1.1]pentane-1-carboxamide] the value was 73 nM. Under `CCOc1cccc(N(CC23CCC(c4noc(C(C)(F)F)n4)(CC2)CC3)C(=O)C23CC(F)(C2)C3)c1` [Example 130, N-((4-(5-(1,1-difluoroethyl)-1,2,4-oxadiazol-3-yl)bicyclo[2.2.2]octan-1-yl)methyl)-N-(3-ethoxyphenyl)-3-fluorobicyclo[1.1.1]pentane-1-carboxamide] stands 91 nM.

Consider `CC(F)(F)c1nc(C23CCC(CN(C(=O)NC[C@H](F)C(C)(C)O)c4cccc(Br)c4)(CC2)CC3)no1` [Example 131, (S)-1-(3-bromophenyl)-1-((4-(5-(1,1-difluoroethyl)-1,2,4-oxadiazol-3-yl)bicyclo[2.2.2]octan-1-yl)methyl)-3-(2-fluoro-3-hydroxy-3-methylbutyl)urea], for which the EC50 came out at 228 nM. Compound `CC(C)(C)c1noc(C23CCC(CN(C(=O)C45CC(F)(C4)C5)c4cccc(Br)c4)(CC2)C3)n1` [Example 132, N-(3-bromophenyl)-N-((4-(3-(tert-butyl)-1,2,4-oxadiazol-5-yl)bicyclo[2.2.1]heptan-1-yl)methyl)-3-fluorobicyclo[1.1.1]pentane-1-carboxamide] showed an EC50 of 498 nM. The compound `CC(C)(C)c1noc(C23CCC(CN(c4cccc(Br)c4)C(=O)[C@H]4C[C@](O)(C(F)(F)F)C4)(CC2)C3)n1` [Example 133, (1s, 3s)-N-(3-bromophenyl)-N-((4-(3-(tert-butyl)-1,2,4-oxadiazol-5-yl)bicyclo[2.2.1]heptan-1-yl)methyl)-3-hydroxy-3-(trifluoromethyl) cyclobutane-1-carboxamide] showed an EC50 of 4000 nM. `CC(C)(F)c1nc(C23CCC(CN(C(=O)C45CC(C(C)(C)O)(C4)C5)c4cccc(Br)c4)(CC2)CC3)no1` [Example 134, N-(3-bromophenyl)-N-((4-(5-(2-fluoropropan-2-yl)-1,2,4-oxadiazol-3-yl)bicyclo[2.2.2]octan-1-yl)methyl)-3-(2-hydroxypropan-2-yl)bicyclo[1.1.1]pentane-1-carboxamide] registered an EC50 of 434 nM. `CC(F)(F)c1nc(C23CCC(CN(C(=O)C45CC(F)(C4)C5)c4cc(F)cc(C#N)c4)(CC2)CC3)no1` [Example 135, N-(3-cyano-5-fluorophenyl)-N-((4-(5-(1,1-difluoroethyl)-1,2,4-oxadiazol-3-yl)bicyclo[2.2.2]octan-1-yl)methyl)-3-fluorobicyclo[1.1.1]pentane-1-carboxamide] gave an EC50 of 18 nM. Compound `CC(F)(F)c1nc(C23CCC(CN(c4cc(F)cc(C#N)c4)C(=O)[C@H]4C[C@](O)(C(F)(F)F)C4)(CC2)CC3)no1` [Example 136, (1S,3S)-N-(3-cyano-5-fluorophenyl)-N-((4-(5-(1,1-difluoroethyl)-1,2,4-oxadiazol-3-yl)bicyclo[2.2.2]octan-1-yl)methyl)-3-hydroxy-3-(trifluoromethyl)cyclobutane-1] had an EC50 of 256 nM. Under `CC(F)(F)c1nc(C23CCC(CN(C(=O)C4CC(F)(F)C4)c4cc(F)cc(C#N)c4)(CC2)CC3)no1` [Example 137, N-(3-cyano-5-fluorophenyl)-N-((4-(5-(1,1-difluoroethyl)-1,2,4-oxadiazol-3-yl)bicyclo[2.2.2]octan-1-yl)methyl)-3,3-difluorocyclobutane-1-carboxamide] stands 103 nM; under `CC(F)(F)c1nc(C23CCC(CN(C(=O)C4CCS(=O)(=O)CC4)c4cc(F)cc(C#N)c4)(CC2)CC3)no1` [Example 138, N-(3-cyano-5-fluorophenyl)-N-((4-(5-(1,1-difluoroethyl)-1,2,4-oxadiazol-3-yl)bicyclo[2.2.2]octan-1-yl)methyl)tetrahydro-2H-thiopyran-4-carboxamide 1,1-dioxide], 4000 nM; under `NC(=O)c1nc(C23CCC(CN(c4cccc(Br)c4)C(=O)[C@H]4C[C@](O)(C(F)(F)F)C4)(CC2)CC3)no1` [Example 139, 3-(4-(((1S,3S)—N-(3-bromophenyl)-3-hydroxy-3-(trifluoromethyl)cyclobutane-1-carboxamido)methyl)bicyclo[2.2.2]octan-1-yl)-1,2,4-oxadiazole-5-carboxamide], 1450 nM. With `NC(=O)c1nc(C23CCC(CN(C(=O)C45CC(F)(C4)C5)c4cccc(Br)c4)(CC2)CC3)no1` [Example 140, 3-(4-((N-(3-bromophenyl)-3-fluorobicyclo[1.1.1]pentane-1-carboxamido)methyl)bicyclo[2.2.2]octan-1-yl)-1,2,4-oxadiazole-5-carboxamide], a half-maximal response (EC50) required 721 nM. This EC50 lies about 2-fold lower than the previous one.

The values above are taken from patent publication US12319676B2, “Substituted amide compounds useful as farnesoid X receptor modulators” (BRISTOL-MYERS SQUIBB COMPANY, priority 2019, dated 2025).
